The assay in a line: UV titration of ter-cyclopentane tetra-amino acid derivatives with lipid A. To be noted: for binding to lipid A in UV titration, in words: aqueous solution, concentrations below the cmc of lipid A / >20 micromolar in lipid A. The class given is binding, Salmonella minnesota.

Consider 4 molecules from patent US6562782B1, “Oligocycloalkanoid compounds and methods of use” (University of Rochester, priority 1999, dated 2003).

Method: A 600 microliter, 0.9 μM solution of the ter-cyclopentane tetra-amino acid derivative in water (pH=5.0) or phosphate-buffered saline (PBS, pH=7.4) was allowed to equilibrate in a 1.0-ml masked wall UV cell at ambient temperature (22° C.), in a Shimadzu 1600-PC UV spectrophotometer. […] After each addition, the solution was allowed to equilibrate for a minimum of 5 minutes, then scanned for absorbance 550-220 nm.

Regarding `NCC(=O)OCC1CC(COC(=O)CN)C(C2CCC(C3C(COC(=O)CN)CC(COC(=O)CN)C3COC(=O)c3ccccc3)C2)C1COC(=O)c1ccccc1` (stereo not shown) [Compound 7.1, tetra-glycinate ter-cyclopentane], the “binding to lipid A in UV titration, in words” value (shortened to “binding … in words”) is on record as “saturation point for binding of lipid A to 7.1 was not reached”. Take `COC(=O)[C@@H](N)Cc1c[nH]c2ccccc12` [Compound H2N-Trp-OCH3, tryptophan methyl-ester, reference compound]: the “binding … in words” value is reported as “not saturatable at the concentrations tested”. For the molecule `NC(Cc1c[nH]c2ccccc12)C(=O)OCC1CC(COC(=O)C(N)Cc2c[nH]c3ccccc23)C(C2CCC(C3C(COC(=O)C(N)Cc4c[nH]c5ccccc45)CC(COC(=O)C(N)Cc4c[nH]c5ccccc45)C3COC(=O)c3ccccc3)C2)C1COC(=O)c1ccccc1` (mixture of isomers) [Compound 7.3, tetra-tryptophaninate ter-cyclopentane], the “lipid A binding affinity compared with polymyxins” value is “greater than the binding affinity of polymyxins”. Take “tetra-phenylalaninate ter-cyclopentane [Compound 7.2]”: the “binding … in words” value is listed as “reasonable affinity”.
